One assay has as its system A549 cells. The assay can be described thus: Cell survival of c-CBL wild type and mutant transfectants after treatment with c-Met and EGFR inhibitors (cell counting). The format is cell-based, Human. The following applies: for sensitivity (cell survival) of c-CBL mutant versus wild type c-CBL transfected cells: A549 cells transiently transfected with c-CBL WT or mutants SH, Q, V, W*, different concentrations, 48 h treatment. How it is done:
A549 and H226 cells were transiently transfected with empty vector (EV) or c-CBL wild type (WT) and mutants' constructs (SH: S80N/H94Y, Q: Q249E, V: V391I, W*: W802*). At 24 h, cells were recollected and seeded 5×10^4 cells/well in 24 well culture plate. Another 24 h, cells were treated with c-Met inhibitor SU11274 and EGFR inhibitor Tarceva in different concentrations. Cell survival was detected by cell counting after 48 h treatment.

For a further assay, the system named is Met kinase. To be noted: cited from earlier work.
The subject of the next assay is H358 NSCLC cells. Nature of the assay: MTT assay of live cells after drug treatment of H358 cells with c-CBL knockdown. The assay is classed as cell-based. To be noted: H358 clone 27 cells, 72 h after drug treatment. How it is done: H358 clone 27 cells expressing high levels of c-CBL were knocked down using a lentiviral construct (sh 27). Cells were treated with the indicated RTK inhibitors, PI-3K inhibitors or cisplatin (CDDP). Live cells were assessed 72 h after drug treatment using a MTT assay.
The effects of silencing wt c-CBL in combination with a variety of drugs that inhibit EGFR (erlotinib [Tarceva]), PI-3K (NVP, Wortmanin), MET (SU11274) on the growth of H358 NSCLC cells that endogenously express c-CBL-Wt were investigated. The H358 cells, which expressed high levels of c-CBL, were knocked down using a lentiviral construct (sh 27, directed against c-CBL-Wt in H358 clone 27 cells (black), or the sh SCR scrambled RNA control (white)). Cells were treated with RTK and P1-3K inhibitors, cisplatin (CDDP). Live cells were assessed 72 hours after drug treatment using an MTT assay.
On the technique in general: Tetrazolium dyes change colour on reduction, which living cells bring about.

The subject of a further assay is EGFR. The following applies: refractory advanced NSCLC; cited from earlier work.

“Also recorded” adds a separate entry of the source.

In the case of `Cc1[nH]c(/C=C2\C(=O)Nc3ccc(S(=O)(=O)N(C)c4cccc(Cl)c4)cc32)c(C)c1C(=O)N1CCN(C)CC1` [SU11274], in the assay with A549 cells (1 μM SU11274, mutants S80N/H94Y, Q249E, V391I, W802* (FIG. 23)), the “sensitivity of A549 cells containing c-CBL mutants versus wild type c-CBL” value is reported as “c-CBL mutants are more sensitive than wild type c-CBL”. Moreover, the “sensitivity (cell survival) of c-CBL mutant versus wild type c-CBL transfected cells” value in the assay on A549 cells is “had more sensitivity to the c-Met inhibitor SU11274; also recorded: c-CBL mutants had more sensitivity to c-Met inhibitor SU11274 than wild type c-CBL”. Also, in the assay with Met kinase, the “cell growth, cell cycle and apoptosis” value was “time- and dose-dependent reduced cell growth and induced G1 cell cycle arrest and apoptosis”. Moreover, the Met kinase autophosphorylation entry in the assay on Met kinase (sites important for PI3K and Ras pathway activation) was “reduced”. In addition, in the assay on H358 NSCLC cells, the “live cells: c-CBL-Wt knockdown (sh 27) versus scrambled shRNA control” value is listed as “silencing c-CBL-Wt significantly reduced the ability of SU11274 (also referred to as SU) to kill NSCLC cells”.
`C#Cc1cccc(Nc2ncnc3cc(OCCOC)c(OCCOC)cc23)c1` [Tarceva, erlotinib]: the “response to EGFR blockade” value in the assay with EGFR is listed as 5-15%. Further, the “sensitivity (cell survival) of c-CBL mutant versus wild type c-CBL transfected cells” value with A549 cells is given as “no difference; also recorded: no differential effects”.

The values above are taken from patent US11390922B2, “C-CBL mutations and uses thereof” (University of Chicago, priority 2010, dated 2022).
